Data on 15 compounds can be found in patent publication US20120165331A1, “Di/tri-aza-spiro-C9-C11alkanes” (priority 2010, published 2012).

The target in test [1] is T1, human orexin 1 receptor (Homo sapiens, UniProt O43613).
T1 construct: expressed in transfected cells
T1 sequence (O43613 1-425): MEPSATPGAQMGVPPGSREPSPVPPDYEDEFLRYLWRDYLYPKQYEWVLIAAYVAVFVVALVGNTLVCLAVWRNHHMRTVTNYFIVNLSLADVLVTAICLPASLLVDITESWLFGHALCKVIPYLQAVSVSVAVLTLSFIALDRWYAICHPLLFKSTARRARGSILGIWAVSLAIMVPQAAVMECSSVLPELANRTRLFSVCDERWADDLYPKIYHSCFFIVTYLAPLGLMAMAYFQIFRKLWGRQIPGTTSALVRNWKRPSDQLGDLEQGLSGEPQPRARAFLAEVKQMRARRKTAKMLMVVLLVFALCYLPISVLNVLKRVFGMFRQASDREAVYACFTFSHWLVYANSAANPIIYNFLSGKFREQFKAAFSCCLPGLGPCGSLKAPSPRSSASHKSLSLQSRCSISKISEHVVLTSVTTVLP
Briefly: Radioligand binding assay ([125I]orexin A competition), human orexin 1 receptor. Conditions: radioligand [125I]orexin A instead of [3H]-SB649868; read-out: Binding hOx1R Kd.

The target of test [2] is T2, human orexin 2 receptor (Homo sapiens, UniProt O43614).
T2 construct: expressed in transfected cells
T2 sequence (O43614 1-444): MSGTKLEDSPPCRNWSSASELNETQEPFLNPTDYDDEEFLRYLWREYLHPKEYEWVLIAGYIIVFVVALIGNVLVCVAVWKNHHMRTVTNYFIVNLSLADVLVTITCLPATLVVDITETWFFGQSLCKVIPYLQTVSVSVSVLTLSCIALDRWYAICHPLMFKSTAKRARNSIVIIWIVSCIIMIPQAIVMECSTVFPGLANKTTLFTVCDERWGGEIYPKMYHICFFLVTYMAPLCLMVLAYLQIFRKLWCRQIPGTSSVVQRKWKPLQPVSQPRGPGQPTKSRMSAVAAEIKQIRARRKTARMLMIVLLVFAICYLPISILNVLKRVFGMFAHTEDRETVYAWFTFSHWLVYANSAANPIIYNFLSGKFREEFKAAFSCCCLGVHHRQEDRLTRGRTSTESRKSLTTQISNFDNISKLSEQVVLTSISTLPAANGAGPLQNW
Briefly: Radioligand binding assay ([125I]orexin A competition), human orexin 2 receptor. Conditions: radioligand [125I]orexin A instead of [3H]-SB649868; read-out: Binding hOx2R Kd.

The target in test [3] is T2, human orexin 2 receptor. Briefly: Calcium accumulation in cells (FLIPR), antagonism of orexin A, human orexin 2 receptor. Format: cell-based. To be noted: calcium accumulation, antagonism of orexin A, Cheng-Prusoff corrected; read-out: FLIPR hOx2R Ki.
Test [4] concerns the target T1, human orexin 1 receptor. Briefly: Calcium accumulation in cells (FLIPR), antagonism of orexin A, human orexin 1 receptor. Conditions: for Ki: calcium accumulation, antagonism of orexin A, Cheng-Prusoff corrected, read-out: FLIPR hOx1R Ki; for inhibition at 10 µM: measured at a concentration of 10 μM of compound, read-out: FLIPR hOx1R % inhibition. Format: cell-based.

For test [5], the target named is T2, human orexin 2 receptor. Briefly: Radioligand binding assay ([3H]-SB649868 competition), human orexin 2 receptor. Conditions: radioligand [3H]-SB649868; read-out: Binding hOx2R Kd. The procedure, abridged: (§1)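 Competition binding against roughly 1 nM [3H]-SB649868, run in triplicate for 1 h at room temperature on CHO or HEK membranes bearing human receptor (10 mM HEPES pH 7.5, 0.5% BSA, 5 mM MgCl2, 1 mM CaCl2, 0.05% tween). Bound radioactivity after vacuum filtration; almorexant 10 μM for non-specific binding; expressed as Kd.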

The target of test [6] is T1, human orexin 1 receptor. Briefly: Radioligand binding assay ([3H]-SB649868 competition), human orexin 1 receptor. To be noted: radioligand [3H]-SB649868; read-out: Binding hOx1R Kd. The procedure, abridged:
as §1

On to `O=C1N(Cc2cccc3ccccc23)CCC12CCN(c1nc3ccccc3[nH]1)CC2` [Example 3.7, 8-(1H-Benzo[d]imidazol-2-yl)-2-(naphthalen-1-ylmethyl)-2,8-diazaspiro[4.5]decan-1-one], for which the Kd (usually the concentration at which binding is half-saturated) is greater than 10000 nM at human orexin 1 receptor [1] and 1920 nM at human orexin 2 receptor [2].

Consider `O=C1N(Cc2cccc3ccccc23)CCC12CCN(c1cnc3ccccc3n1)CC2` [Example 3.11, 2-(Naphthalen-1-ylmethyl)-8-(quinoxalin-2-yl)-2,8-diazaspiro[4.5]decan-1-one], for which the Kd at human orexin 1 receptor [1] came out at 6360 nM; at human orexin 2 receptor [2], 414 nM. Moreover, the Ki (commonly the equilibrium dissociation constant of an inhibitor or competing ligand from its target) at human orexin 2 receptor [3] was 195 nM; at human orexin 1 receptor [4] it was 1070 nM.

As to `COc1cc(C)nc(N2CCC3(CCCN(Cc4ccccc4-c4nc(C)no4)C3=O)C2)n1` (stereo not shown) [Example 7.14, 2-(4-methoxy-6-methylpyrimidin-2-yl)-7-(2-(3-methyl-1,2,4-oxadiazol-5-yl)benzyl)-2,7-diazaspiro[4.5]decan-6-one], the inhibition constant Ki at human orexin 2 receptor [3] worked out at 92 nM; at human orexin 1 receptor [4], 174 nM. Moreover, the Kd at human orexin 2 receptor [5] turned out to be 210 nM; at human orexin 1 receptor [6] it was 171 nM.

`O=C1N(Cc2c[nH]c3ccccc23)CCCC12CCN(c1nc3ccccc3[nH]1)C2` (stereo not shown) [Example 7.15, 7-((1H-indol-3-yl)methyl)-2-(1H-benzo[d]imidazol-2-yl)-2,7-diazaspiro[4.5]decan-6-one]: the values for the inhibition constant (Ki) at human orexin 2 receptor [3] and at human orexin 1 receptor [4] were 68 nM and 474 nM, respectively. The Kd at human orexin 2 receptor [5] stood at 28 nM; at human orexin 1 receptor [6], 43 nM.

Consider `O=C1CCC2(CCN(c3cnc4ccccc4n3)CC2)N1Cc1cccc2[nH]ccc12` [Example 8.1], for which the Ki on human orexin 2 receptor [3] turned out to be 2.1 nM; at human orexin 1 receptor [4], 78 nM. Also, the figures for the Kd on human orexin 2 receptor [5] and on human orexin 1 receptor [6] were 32 nM and 148 nM, respectively.

For `Cc1cc(C)nc(N2CCC3(CCC(=O)N3Cc3cccc4[nH]ccc34)CC2)n1` [Example 8.3, 1-((1H-Indol-4-yl)methyl)-8-(4,6-dimethylpyrimidin-2-yl)-1,8-diazaspiro[4.5]decan-2-one], the values for the Ki at human orexin 2 receptor [3] and on human orexin 1 receptor [4] were 2.3 nM and 1210 nM, respectively. The Kd at human orexin 2 receptor [5] was 30 nM; on human orexin 1 receptor [6], 2380 nM.

For the compound `N#Cc1ccnc(N2CCC3(CCC(=O)N3Cc3cccc4[nH]ccc34)CC2)c1` [Example 8.4, 2-(1-((1H-Indol-4-yl)methyl)-2-oxo-1,8-diazaspiro[4.5]decan-8-yl)isonicotinonitrile], on human orexin 2 receptor [3], the Ki turned out to be 45 nM. Further, the inhibition (in general, the drop in the measured response relative to a control, in per cent) at 10 µM at human orexin 1 receptor [4] was 36%. For the same compound, the dissociation constant Kd is 348 nM on human orexin 2 receptor [5] and greater than 10000 nM at human orexin 1 receptor [6].

Turning to `Cc1ccc(C)c(CN2C(=O)CCC23CCN(c2cnc4ccccc4n2)CC3)c1` [Example 8.5, 1-(2,5-Dimethylbenzyl)-8-(quinoxalin-2-yl)-1,8-diazaspiro[4.5]decan-2-one], the figures for the inhibition constant Ki on human orexin 2 receptor [3] and at human orexin 1 receptor [4] were 7.6 nM and 100 nM, respectively. For the same compound, the Kd came out at 77 nM at human orexin 2 receptor [5] and 81 nM on human orexin 1 receptor [6].

For `Cc1ccc(C)c(CN2C(=O)CCC23CCN(c2nc(C)cc(C)n2)CC3)c1` [Example 8.6, 1-(2,5-Dimethylbenzyl)-8-(4,6-dimethylpyrimidin-2-yl)-1,8-diazaspiro[4.5]decan-2-one], the Ki on human orexin 2 receptor [3] is 10 nM; on human orexin 1 receptor [4], 2780 nM. In addition, the Kd on human orexin 2 receptor [5] is 153 nM; at human orexin 1 receptor [6], 4920 nM.

Turning to `Cc1ccc(C)c(CN2C(=O)COCC23CCN(c2cnc4ccccc4n2)CC3)c1` [Example 8.7, 1-(2,5-Dimethylbenzyl)-9-(quinoxalin-2-yl)-4-oxa-1,9-diazaspiro[5.5]undecan-2-one], the Ki at human orexin 2 receptor [3] was 24 nM; on human orexin 1 receptor [4], 274 nM. In addition, the Kd stood at 102 nM on human orexin 2 receptor [5] and 431 nM on human orexin 1 receptor [6].

On to `O=C1COCC2(CCN(c3cnc4ccccc4n3)CC2)N1Cc1cccc2[nH]ccc12` [Example 8.9, 1-((1H-Indol-4-yl)methyl)-9-(quinoxalin-2-yl)-4-oxa-1,9-diazaspiro[5.5]undecan-2-one], for which the Ki at human orexin 2 receptor [3] came out at 29 nM; at human orexin 1 receptor [4], 320 nM. The values for the Kd on human orexin 2 receptor [5] and on human orexin 1 receptor [6] were 136 nM and 429 nM, respectively.

As for `O=C1COCC2(CCN(c3cnc4ccccc4n3)CC2)N1Cc1cccc(-c2ccccn2)c1` [Example 8.11, 1-(3-(Pyridin-2-yl)benzyl)-9-(quinoxalin-2-yl)-4-oxa-1,9-diazaspiro[5.5]undecan-2-one], the Ki amounted to 783 nM on human orexin 2 receptor [3] and 53 nM at human orexin 1 receptor [4]. In addition, the Kd on human orexin 2 receptor [5] was 4540 nM; at human orexin 1 receptor [6] it was 53 nM.

In the case of `Cc1ccc(C)c(CN2C(=O)COCC23CCN(c2nc(C)cc(C)n2)CC3)c1` [Example 8.15, 1-(2,5-Dimethylbenzyl)-9-(4,6-dimethylpyrimidin-2-yl)-4-oxa-1,9-diazaspiro[5.5]undecan-2-one], the inhibition constant Ki at human orexin 2 receptor [3] came out at 28 nM. Besides, the inhibition at 10 µM on human orexin 1 receptor [4] was found to be 15%. The Kd at human orexin 2 receptor [5] was 165 nM; at human orexin 1 receptor [6] it was greater than 10000 nM.

Regarding `Cc1ccc(C)c(CN2C(=O)OCC23CCN(c2cnc4ccccc4n2)CC3)c1` [Example 8.20, 1-(2,5-Dimethylbenzyl)-8-(quinoxalin-2-yl)-3-oxa-1,8-diazaspiro[4.5]decan-2-one], the figures for the Ki on human orexin 2 receptor [3] and on human orexin 1 receptor [4] were 14 nM and 141 nM, respectively. Further, the results for the Kd on human orexin 2 receptor [5] and on human orexin 1 receptor [6] were 152 nM and 171 nM, respectively.

Turning to `O=C1OCC2(CCN(c3cnc4ccccc4n3)CC2)N1Cc1cccc2[nH]ccc12` [Example 8.22, 1-((1H-Indol-4-yl)methyl)-8-(quinoxalin-2-yl)-3-oxa-1,8-diazaspiro[4.5]decan-2-one], the Ki at human orexin 2 receptor [3] came to 38 nM; on human orexin 1 receptor [4] it was 645 nM. Moreover, the Kd on human orexin 2 receptor [5] stood at 290 nM; at human orexin 1 receptor [6], 986 nM.
